Results: EP0187057A1, “2-Phenyl-isopropyl-allophanate, preparation and pharmaceutical application” (priority 1984, dated 1986)
“Also recorded” adds a separate entry of the source.

Columns and labels:
[1] = test system: crises psychomotrices; assay: Psychomotor seizures induced by low-frequency transcranial electrical stimulation; assay type: in vivo, souris; conditions: for Pourcentage de souris protégées une heure après traitement: groupes de 20 souris; for ED50: Mus musculus, po, read-out: DE50 capable de protéger 50 % des animaux contre les crises psychomotrices
Excerpt: (§1) Propriétés anticonvulsivantes : • On a effectué, pour déterminer ces propriétés anticonvulsivantes, des expérimentations sur le SCS 289 en procédant à des essais de protection : • - chez le lapin soumis à une transélectrification cranienne génératrice de crises épileptiformes de type "grand mal" ou recevant une infusion veineuse de pentétrazol provoquant l'apparition de myoclonies palpébrales; • - chez la souris recevant, par voie sous-cutanée des doses croissantes de pentétrazol entraînant convulsions et mort ou soumise à une transélectrification transcranienne à basse fréquence génératrice de crises psychomotrices.
On a également recherché si le SCS 289 était susceptible de protéger la souris contre le choc psychomoteur induit par une stimulation transcranienne à basse fréquence qui provoque, chez l'animal, un bref comportement de désorientation rappelant les attaques psychomotrices de l'homme.
Vis-à-vis des crises psychomotrices provoquées chez la souris par une stimulation électrique transcranienne à basse fréquence, le SCS 35 apparait plus actif que le SCS 289 : […]

[2] = test system: myoclonies palpébrales provoquées par l'infusion veineuse de pentétrazol; assay: Intravenous pentetrazol infusion producing palpebral myoclonus (threshold seizures); assay type: in vivo, lapin; conditions: reference anticonvulsants, essais croisés, unit not given
Excerpt: as §1
Les résultats quant à la protection contre les crises pentétrazoliques liminaires génératrices de myaclonies palpébrales figurent dans les tableaux ci-après.
L'administration préalable de SCS 289 retarde l'apparition des myoclonies palpébrales provoquées par l'infusion veineuse de pentétrazol.
Une expérimentation similaire pratiquée en essais croisés a donné les résultats suivants pour divers anticonvulsivants de référence : […]

[3] = test system: crises pentétrazoliques; assay: Convulsant and lethal effects of subcutaneous pentetrazol (125 mg/kg); assay type: in vivo, souris
Excerpt: as §1
Pour déceler une synergie d'action antagoniste vis-à-vis des effets convulsivants et létaux du pentétrazol injecté par voie sous-cutanée chez la souris à la dose de 125 mg/kg, on a déterminé avec plus de précision la DE50 du SCS 289 et on a recherché si l'association avec le SCS 35 apportait un surcroit appréciable d'activité.
On n'a retenu comme significative que la protection à l'égard des effets létaux observés sur 24 heures.

[4] = test system: crises épileptiformes consécutives à l'électrochoc; assay: Maximal electroshock producing epileptiform 'grand mal' seizures (1st and 2nd electroshock); assay type: in vivo, lapin; conditions: for % d'animaux protégés complètement: one hour before second electroshock, groups of ten rabbits
Excerpt: as §1
Ne considérant comme significative, que la protection complète, les traitements pratiqués une heure avant le second électrochoc ont conféré les protection suivantes (sur groupes de dix lapins) :
Si, par ailleurs, on considère la protection contre les crises toniques (hyperextension des pattes postérieures), il apparaît également une synergie particulièrement aux doses associées de 200 mg/kg de produits.

With `NC(=O)NC(=O)Cc1ccccc1` [Phénacétamide] the “Pourcentage de souris protégées une heure après traitement” value ([1]; 10 mg/kg voie digestive) was 40%, the “Pourcentage de souris protégées une heure après traitement” value ([1]; 25 mg/kg voie digestive) was 70% and the “Pourcentage de souris protégées une heure après traitement” value ([1]; 50 mg/kg voie digestive) was 85%. For the same molecule, the “Pourcentage de souris protégées une heure après traitement” value ([1]; 100 mg/kg voie digestive) was 100%, the ED50 ([1]; souris, voie digestive) was ~14 mg/kg and the “Elévation du seuil myoclonique” value ([2]; 25 mg/kg) was 32,4. For the same molecule, the “Elévation du seuil myoclonique” value ([2]; 50 mg/kg) was 43,1 and the “Elévation du seuil myoclonique” value ([2]; 100 mg/kg) was 58,2.

In the case of `CCOC(=O)N(C(N)=O)c1ccccc1` [SCS 35, phényl-2 allophanate d'éthyle], the “% de protection vis-à-vis de la létalité pentétrazolique” value ([3]; 10 mg/kg) is reported as 0%, the “% de protection vis-à-vis de la létalité pentétrazolique” value ([3]; 20 mg/kg) is reported as 10% and the “% de protection vis-à-vis de la létalité pentétrazolique” value ([3]; 50 mg/kg) is reported as 50%. The ED50 ([3]; Mus musculus, sc, 24 h, souris, read-out: DE50 à l'égard des crises pentétrazoliques maximales et létales) was 55 mg/kg, the “Pourcentage de souris protégées une heure après traitement” value ([1]; 5 mg/kg voie digestive) was 60% and the “Pourcentage de souris protégées une heure après traitement” value ([1]; 10 mg/kg voie digestive) was 90%. The “Pourcentage de souris protégées une heure après traitement” value ([1]; 2,5 mg/kg voie digestive) was 40%, the ED50 ([1]; souris, voie digestive) was 3.5 mg/kg and the “DE50 capable de protéger 50 % des animaux contre les crises psychomotrices” value ([1]; souris, voie digestive) was 3,5 mg/kg. The “% d'animaux protégés complètement” value ([4]; 100 mg/kg) was “Nul”, the “% d'animaux protégés contre les seules crises toniques” value ([4]; 100 mg/kg, hyperextension tonique des pattes postérieures) was 60% and the “% d'animaux protégés contre les seules crises toniques” value ([4]; 200 mg/kg) was 80%. For the same molecule, the “% d'animaux protégés complètement” value ([4]; 200 mg/kg) was 10%.

With `CCCC(CCC)C(=O)O` [Valproate de sodium] the “Pourcentage de souris protégées une heure après traitement” value ([1]; 50 mg/kg voie digestive) was 15%, the “Pourcentage de souris protégées une heure après traitement” value ([1]; 100 mg/kg voie digestive) was 40% and the “Pourcentage de souris protégées une heure après traitement” value ([1]; 250 mg/kg voie digestive) was 85%. The ED50 ([1]; souris, voie digestive) was ~120 mg/kg, the “DL50/DE50 / Crises psycho-motrices” value ([1]; index thérapeutique absolu, souris) was 15 and the “DE50 psychodépressive / DE50 anticonvulsivante / Crises psycho-motrices” value ([1]; index thérapeutique relatif, psychodépressive = mean of DE50 for agilité, force musculaire, motricité, curiosité) was 7. The “Elévation du seuil myoclonique” value ([2]; 100 mg/kg) was 54,7, the “Elévation du seuil myoclonique” value ([2]; 500 mg/kg) was 65,5 and the “protection contre les crises électriques maximales” value ([4]; 500 mg/kg, same experimental conditions) was “absolument inefficace; also recorded: inactif”.
